# In ChEMBL document CHEMBL4414564, “Viola "inconspicua" No More: An Analysis of Antibacterial Cyclotides” (2019):
# Bridge positions count the residues as written; N and C are the ends. Square brackets hold non-standard residues; d marks the D form. Peptide text beside a SMILES is read from it. ξ: configuration not given here. Thr(3ξ) = CC(O)[C@H](N)C(=O)O
# What was measured:
# Format in all cases: functional
# Escherichia coli [1] = assay: Antibacterial activity against Escherichia coli ATCC 25922 assessed as reduction in bacterial cell viability incubated for 4 hrs by resazurin assay; conditions: ATCC 25922, 4 h
# Klebsiella pneumoniae = assay: Antibacterial activity against rifampin and streptomycin resistant Klebsiella pneumoniae VK148 assessed as reduction in bacterial cell viability incubated for 4 hrs by resazurin assay; conditions: VK148, 4 h
# Escherichia coli [2] = assay: Antibacterial activity against Escherichia coli ATCC 25922 assessed as reduction in […] at 60 uM incubated for 4 hrs by resazurin assay relative to control; design: scale not given: the % may be the effect or the level left
SMILES,MIC (Escherichia coli [1]) [µM],MIC (Klebsiella pneumoniae) [µM],Activity (Escherichia coli [2]) [%]
CC[C@H](C)[C@@H]1NC(=O)[C@H](C)NC(=O)[C@H](CO)NC(=O)[C@H](CO)NC(=O)[C@H]([C@@H](C)CC)NC(=O)[C@@H]2CSSC[C@@H]3NC(=O)[C@H](C(C)C)NC(=O)[C@H](CCCCN)NC(=O)[C@@H](CO)NC(=O)[C@H](CCCCN)NC(=O)[C@H]4CSSC[C@H](NC(=O)[C@H](CO)NC(=O)[C@H](CCC(=O)O)NC(=O)CNC(=O)[C@H](CSSC[C@H](NC(=O)CNC1=O)C(=O)N[C@@H](CO)C(=O)N4)NC(=O)[C@@H]1CCCN1C(=O)[C@H]([C@@H](C)CC)NC(=O)CNC(=O)[C@H](CC(N)=O)NC(=O)[C@@H](CCCNC(=N)N)NC(=O)[C@H](Cc1ccc(O)cc1)NC3=O)C(=O)N[C@@H](C(C)C)C(=O)N[C@@H](Cc1c[nH]c3ccccc13)C(=O)N[C@@H]([C@@H](C)CC)C(=O)N1CCC[C@H]1C(=O)N2,5,< 12.5,–
"CC[C@H](C)[C@@H]1NC(=O)[C@H](CO)NC(=O)[C@H](C)NC(=O)[C@H](CO)NC(=O)[C@H](Cc2ccc(O)cc2)NC(=O)[C@@H]2CSSC[C@@H]3NC(=O)[C@H](C(C)C)NC(=O)[C@H](CCCCN)NC(=O)[C@H](Cc4ccc(O)cc4)NC(=O)[C@H](CCCCN)NC(=O)[C@H](CO)NC(=O)[C@@H]4CSSC[C@H](NC(=O)[C@H](C(C)O)NC(=O)[C@H](CCC(=O)O)NC(=O)CNC(=O)[C@H](CSSC[C@H](NC(=O)CNC1=O)C(=O)N[C@@H](CO)C(=O)N4)NC(=O)[C@H](C)NC(=O)CNC(=O)[C@@H]1CCCN1C(=O)[C@H](CC(N)=O)NC(=O)CNC(=O)[C@H](CC(N)=O)NC(=O)[C@H](CC(C)C)NC(=O)[C@H]([C@@H](C)O)NC3=O)C(=O)N[C@@H]([C@@H](C)CC)C(=O)N[C@@H](Cc1c[nH]c3ccccc13)C(=O)NCC(=O)N[C@@H](CCCCN)C(=O)N2 (stereo partly drawn) (cyclo(ACGE[Thr(3ξ)]CIWGKCYSASIGCSCSKYKVCTLNGNPG); disulfide 2-18, 6-20, 11-26)",–,–,50
